Experimental data from BindingDB's records for patent US10370339 (Bayer Pharma Aktiengesellschaft, 2019).

What follows are compounds tested against Isocitrate dehydrogenase [NADP] cytoplasmic [R132H] (Homo sapiens, UniProt O75874, R132H) (assay: Biological Assay).
Method: Mutant IDH1 R132H Biochemical Assay mIDH1 catalyzes the NADPH-dependent reduction of alpha-ketoglutarate (a-KG) to (2R)-2-hydroxyglutarate (2-HG). NADPH consumption was measured by luminescent readout.The biochemical reactions were performed at 32° C. in 384-well plates using a reaction volume of 41 μL and the following assay buffer conditions: 50 mM Tris pH 7.5, 100 mM NaCl, 20 mM MgCl2, 0.05% BSA, 0.01% Brij, 1 μM NADPH, and 250 μM α-KG. The IDH1 R132H enzyme was used in a final concentration of 1.5 nM. Test compounds were used in a concentration range between 0.002 and 10 μM. The final DMSO concentration was 2.4%.The reaction was incubated for 30 minutes, then 40 μL of detection mix (0.75 μg/ml Luciferase, 0.02 U/ml Oxidoreductase, 4 μg/mL FMN, 2 μL/ml decanal/ethanol, 50 mM Tris pH 7.5, 0.5% Glycerin, 0.01% Tween-20, 0.05% BSA) was added. Luminescence was measured on a luminescent reader (10 seconds measuring time, 1 second integration period, 30% sensitivity). The decrease in luminescence is proportional to mIDH1 activity. IC50 values are determined by interpolation from plots of relative luminescence versus inhibitor concentration.

Isocitrate dehydrogenase [NADP] cytoplasmic [R132H], sequence (O75874 2-414 R132H limits assumed): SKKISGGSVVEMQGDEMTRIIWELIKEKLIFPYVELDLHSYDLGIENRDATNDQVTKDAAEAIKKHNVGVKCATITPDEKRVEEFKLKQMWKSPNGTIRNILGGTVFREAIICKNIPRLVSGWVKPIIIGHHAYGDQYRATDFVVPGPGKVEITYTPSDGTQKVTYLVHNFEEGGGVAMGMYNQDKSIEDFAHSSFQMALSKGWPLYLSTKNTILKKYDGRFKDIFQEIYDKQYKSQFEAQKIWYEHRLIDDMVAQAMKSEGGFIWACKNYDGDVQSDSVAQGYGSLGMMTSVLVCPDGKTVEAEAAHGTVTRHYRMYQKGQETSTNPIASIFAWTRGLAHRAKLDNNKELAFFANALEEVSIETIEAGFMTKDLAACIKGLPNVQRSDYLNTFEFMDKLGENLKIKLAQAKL

SMILES	IC50
COc1cc2c(cc1C(=O)O)nc(Nc1ccc(OC(C)C)cc1)n2[C@@H]1C[C@H](C)CC[C@H]1C(C)C [US10370339, Example 2-30]	15 nM
CC(C)[C@@H]1CC[C@@H](C)C[C@H]1n1c(Nc2ccc(OC(F)(F)F)cc2)nc2cc(CC(=O)O)ccc21 [US10370339, Example 2-31]	14 nM
COc1cc2c(cc1CCC(=O)O)nc(Nc1ccc(C(C)C)cc1)n2[C@@H]1C[C@H](C)CC[C@H]1C(C)C [US10370339, Example 2-48]	11 nM
